Data as given in PMC9965906, “Discovery and Development Strategies for SARS-CoV-2 NSP3 Macrodomain Inhibitors” (Pathogens, 2023).

Legend:
NSP3 Mac1 [1] = conditions: recognition by NSP3 Mac1; cited from earlier work
NSP3 Mac1 [2] = tested on: NSP3 Mac1; parameters: method as in PMID 35598780; conditions: similar set-up using the peptide, AlphaScreen; cited from earlier work
SARS-CoV-2 NSP3 Mac1 = SARS-CoV-2 NSP3 Mac1 (Severe acute respiratory syndrome coronavirus 2, UniProt P0DTD1); experiment: biochemical; type: binding; conditions: for inhibitory activity in FDA-approved library screen: primary screen at the set screening concentration
MacroD1 = conditions: MacroD1, AlphaScreen-based assay format; cited from earlier work
[3] = FDA-approved compound library primary screen, 50 µM, single shot

In the case of Nc1ncnc2c1ncn2[C@@H]1O[C@H](COP(=O)(O)OP(=O)(O)OC[C@H]2OC(O)[C@H](O)[C@@H]2O)[C@@H](O)[C@H]1O (stereo partly shown) [ADP-ribose], the Kd (NSP3 Mac1 [1]) is given as 13 µM and the IC50 (NSP3 Mac1 [2]) is given as 1.5 µM.
In the case of Cc1ccc(C(=O)Nc2ccc(S(=O)(=O)O)c3cc(S(=O)(=O)O)cc(S(=O)(=O)O)c23)cc1NC(=O)c1cccc(NC(=O)Nc2cccc(C(=O)Nc3cc(C(=O)Nc4ccc(S(=O)(=O)O)c5cc(S(=O)(=O)O)cc(S(=O)(=O)O)c45)ccc3C)c2)c1 [Suramin hexasodium, reference compound], the inhibition at 50 µM (SARS-CoV-2 NSP3 Mac1; [3]) is reported as 55.8% and the “inhibitory activity in FDA-approved library screen” value (“inhibitory activity” below) (SARS-CoV-2 NSP3 Mac1) is reported as “confirm the inhibitory activity”.
In the case of C[CH2][Hg][S]c1ccccc1C(=O)[O-].[Na+] [Thimerosal, reference compound], the IC50 (MacroD1) is listed as 5.2 µM.
In the case of C=CCCCCCCCCC(=O)[O-].C=CCCCCCCCCC(=O)[O-].[Zn+2] [Zinc undecylenate, reference compound], the “NSP3 Mac1 inhibition at 50 µM (%)” value (SARS-CoV-2 NSP3 Mac1; [3]) is reported as 68.0%.
With Nc1ncnc2[nH]cnc12 [adenine, reference compound] the “inhibitory activity” value (SARS-CoV-2 NSP3 Mac1) was “did not show any inhibitory activity”.
In the case of N[C@@H](C(=O)N[C@@H]1C(=O)N2C(C(=O)O)=C(Cl)CS[C@H]12)c1ccccc1 [cefaclor, reference compound], the “inhibitory activity” value (SARS-CoV-2 NSP3 Mac1) is reported as “could yet not measure any inhibitory activity”.
With NNc1nncc2ccccc12 [hydralazine, reference compound] the “inhibitory activity” value (SARS-CoV-2 NSP3 Mac1) was “no NSP3 Mac1 inhibition”.
For O=C(O)CCc1nc(-c2ccccc2)c(-c2ccccc2)o1 [oxaprozin, reference compound], the “inhibitory activity” value (SARS-CoV-2 NSP3 Mac1) was “could not be identified in our screen”.
In the case of COCCCOc1ccnc(C[S+]([O-])c2nc3ccccc3[nH]2)c1C (stereo not shown) [rabeprazole, reference compound], the “inhibitory activity” value (SARS-CoV-2 NSP3 Mac1) is reported as “could yet not measure any inhibitory activity”.
In the case of CCCc1nc2c(C)cc(-c3nc4ccccc4n3C)cc2n1Cc1ccc(-c2ccccc2C(=O)O)cc1 [telmisartan, reference compound], the “inhibitory activity” value (SARS-CoV-2 NSP3 Mac1) is reported as “could yet not measure any inhibitory activity”.
In the case of Candicidin [reference compound], the “NSP3 Mac1 inhibition at 50 µM (%)” value (SARS-CoV-2 NSP3 Mac1; [3]) is reported as 50.1% and the “NSP3 Mac1 inhibition at 50 µM (%)” value (SARS-CoV-2 NSP3 Mac1; FDA-approved compound library primary screen, 50 µM, single shot, listed as candicidin) is reported as 50%.
For “Chlorophyllide Cu complex Na salt [reference compound]”, the “NSP3 Mac1 inhibition at 50 µM (%)” value (SARS-CoV-2 NSP3 Mac1; [3]) was 106.7% and the “NSP3 Mac1 inhibition at 50 µM (%)” value (SARS-CoV-2 NSP3 Mac1; FDA-approved compound library primary screen, 50 µM, single shot, listed as chlorophyllide–copper complex) was 106%.
